From patent US20110236326A1, “Skin Whitener” (Cognis IP Management GmbH, priority 2008, published 2011)

How the values were obtained:
[1] = test system: Melanocytes (B16 cell line); assay: Melanogenesis inhibition assay (melanin level and cellular proteins); type: cell-based; settings: 3 days incubation; for Melanin level: B16 cells, OD 475 nm
Method: Melanocytes (B16 cell line) are inoculated in standard medium of cell culture with fetal calf serum (FCS). After an incubation of 3 days at 37° C. and CO2=5%, growth medium is exchanged for standard medium with a range of concentrations for the compound to be tested and a control without ingredient. After an incubation of 3 days, the level of melanin is measured by recording the optical density at 475 nm. After washing the cells by a balanced salt, and homogenization in a solution of 0.1 M NaOH, the number of viable cells is determined by the level of cellular proteins (Bradford's method).
The results are expressed in % against control (cell culture medium without compound) as a mean on 1 to 3 assays, each in triplicate.

mushroom tyrosinase = assay: Mushroom tyrosinase inhibition assay; type: biochemical; settings: DOPA substrate, pH 6.8
Method: In the melanin biosynthesis pathway, tyrosinase is a key enzyme catalyzing the initial steps: the oxidation of tyrosine into dihydroxyphenylalanine (DOPA) and of DOPA into Dopaquinone. In phosphate buffer at pH 6.8, DOPA is mixed with a range of concentration of the compound to be tested, and a control without compound. After addition of mushroom tyrosinase, oxidation of DOPA is recorded by measuring OD at 475 nm during 30 sec. The % of tyrosinase inhibition is expressed in % against control as a mean of 2-3 assays.

| Compound | Melanin level ([1]; dose 0.001 % (w/v)) [%/control] | Melanin level ([1]; dose 0.003 % (w/v)) [%/control] | Protein level (rate of cellular proteins, viable cells by Bradford's method) ([1]; dose 0.001 % (w/v)) [%/control] | Protein level (rate of cellular proteins, viable cells by Bradford's method) ([1]; dose 0.003 % (w/v)) [%/control] | Melanin level ([1]; dose 0.01 % (w/v)) [%/control] | Protein level (rate of cellular proteins, viable cells by Bradford's method) ([1]; dose 0.01 % (w/v)) [%/control] | % of tyrosinase inhibition (mushroom tyrosinase; dose 0.0001 % (w/v)) [%] | % of tyrosinase inhibition (mushroom tyrosinase; dose 0.001 % (w/v)) [%] | % of tyrosinase inhibition (mushroom tyrosinase; dose 0.01 % (w/v)) [%] |
| --- | --- | --- | --- | --- | --- | --- | --- | --- | --- |
| CN(N)C(=O)Nc1ccccc1 [1-amino-1-methyl-3-phenylurea] | 92 | 88 | 102 | 99 |  |  |  |  |  |
| Cc1ccc(NC(=O)NN)c(C)c1 [1-amino-3-(2,4-dimethylphenyl)urea] | 98 | 87 | 103 | 99 |  |  |  |  |  |
| NNC(=O)Nc1ccccc1 [1-amino-3-phenylurea] | 79 | 47 | 95 | 94 | 19 | 104 | 31 | 55 | 89 |
